Data reported in publication PMC9182007, “Statistical Methods in the Study of Protein Binding and Its Relationship to Drug Bioavailability in Breast Milk” (Molecules, 2022).
Like-named read-outs stand apart in the source and are kept apart here.

What was measured:
[1] = biological target: T1, bovine serum albumin (BSA) (Bos taurus, UniProt P02769); assay: NP TLC on plates impregnated with bovine serum albumin; assay type: binding; conditions: for NP (Rf, BSA-impregnated NP plate): Table S3, NP plate impregnated with 2 mg/mL BSA, pH 7.4 mobile phase
T1 construct: purchased Sigma Aldrich
T1 sequence (P02769 25-607): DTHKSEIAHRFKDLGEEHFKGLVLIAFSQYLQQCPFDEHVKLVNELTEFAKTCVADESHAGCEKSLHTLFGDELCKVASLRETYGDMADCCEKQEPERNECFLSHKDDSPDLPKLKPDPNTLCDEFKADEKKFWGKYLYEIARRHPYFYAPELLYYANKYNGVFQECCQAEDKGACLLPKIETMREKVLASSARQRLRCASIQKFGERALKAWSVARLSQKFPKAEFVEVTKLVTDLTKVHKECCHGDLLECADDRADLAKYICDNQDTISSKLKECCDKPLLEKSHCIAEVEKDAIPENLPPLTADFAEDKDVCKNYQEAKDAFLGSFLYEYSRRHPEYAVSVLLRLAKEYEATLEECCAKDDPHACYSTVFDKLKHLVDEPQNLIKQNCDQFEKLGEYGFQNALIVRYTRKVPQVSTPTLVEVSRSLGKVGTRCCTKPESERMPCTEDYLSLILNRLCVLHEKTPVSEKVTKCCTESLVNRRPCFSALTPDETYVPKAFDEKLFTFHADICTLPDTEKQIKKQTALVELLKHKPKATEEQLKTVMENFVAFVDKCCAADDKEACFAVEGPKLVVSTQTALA
From the text: (§1) Chromatographic descriptors were obtained in experiments, thin layer chromatography in normal (NP TLC) and reversed mode (RP TLC). The stationary phase was modified with bovine serum albumin (BSA). TLC was the source of retention factor (Rf) values, denoted in statistical models as NP and RP.
(§2) For TLC chromatography, glass plates 20 × 20 cm from Merck, covered with silica gel with the addition of a fluorescent indicator, were used. Normal phase (NP) plates were used with standard Merck TLC Silica gel 60 F254 plates, while in reverse phase (RP) silanized plates RP-2: Merck TLC Silica gel 60 RP-2 F254 were used.
(§3) The stationary phase of the plates, both NP and RP, was modified with an aqueous solution of bovine serum albumin purchased from Sigma Aldrich (bovine serum albumin, lyophilized powder).
(§4) The impregnation of the plates was carried out with a 2 mg/mL solution applied to the surface using a Desaga SG 1 hand sprayer; the plates were then air dried. […] Normal and reversed phase thin layer chromatography (NP TLC and RP TLC respectively) was performed using silica-gel-coated glass plates. Half of them were covered with 2 mg/mL bovine serum albumin solution and half remained pure.
(§5) The mobility of the compounds was also determined on the plates with no protein as a modifier. […] The acetate buffer (20 mM) was prepared by dissolving 1.54 g of ammonium acetate in 1 L of distilled water. The pH was then adjusted with a concentrated ammonia solution using a pH meter. The plates were developed in standard, vertical chromatographic chambers, each time using 100 mL of the mobile phase, after the chamber was previously saturated with solvent vapors for approximately 1 h.
(§6) The unfolded-protein-impregnated plates and the control plates were scanned with a Desaga CD 60 densitometer. The values of the delay factor (Rf) were collected, i.e., the ratio of the distance traveled by the substance to be analyzed to the distance traveled through the front of the mobile phase. […] The experiment was repeated (for both BSA-coated and control plates) and the Rf values pooled are the mean of both series of experiments.

[2] = NP TLC on non-impregnated control plates; assay type: physicochemical; conditions: for CNP (Rf, control NP plate): Table S3, non-impregnated NP plate, acetonitrile/acetate buffer pH 7.4/methanol 60:20:20
[3] = HPLC on immobilized artificial membrane column (HPLCIAM); assay type: physicochemical; conditions: for kIAM / log kIAM: Table S9, external group; for log k IAM: Table S5, IAM column, pH 7.4; for k IAM: Table S5, retention factor, IAM column, phosphate buffer pH 7.4/acetonitrile 80:20
Method: High performance liquid chromatography was performed using immobilized human serum albumin column (HPLCHSA) and immobilized artificial membrane (HPLCIAM). HPLC was the source of the log k values (logarithm of retention factor), log kHSA and log kIAM.
The second experiment was performed using an immobilized artificial membrane (IAM) column. The assay was also performed on a Perkin Elmer Series 200 instrument connected to a UV-VIS spectrometer as the detector. The analytical wavelength was the same for all compounds, at 210 nm. […] The mobile phase was a mixture of 10 mM phosphate buffer pH 7.4 and acetonitrile in the ratio 80:20 (v/v). The phosphate buffer was obtained by dissolving the finished tablet in the appropriate amount of distilled water (1 tablet per 200 mL). In this case, it was not necessary to adjust the pH of the buffer using a pH meter.
The phase flow through the system was set to 0.5 mL/min as recommended by the column manufacturer. The solutions were delivered to the column using an autosampler syringe, the injection size was 10 µL.
The experiment was then repeated and the collected retention rates were the mean values of both series.

[4] = biological target: T2, human serum albumin (HSA) (Homo sapiens, UniProt P02768)
T2 sequence (P02768 25-609): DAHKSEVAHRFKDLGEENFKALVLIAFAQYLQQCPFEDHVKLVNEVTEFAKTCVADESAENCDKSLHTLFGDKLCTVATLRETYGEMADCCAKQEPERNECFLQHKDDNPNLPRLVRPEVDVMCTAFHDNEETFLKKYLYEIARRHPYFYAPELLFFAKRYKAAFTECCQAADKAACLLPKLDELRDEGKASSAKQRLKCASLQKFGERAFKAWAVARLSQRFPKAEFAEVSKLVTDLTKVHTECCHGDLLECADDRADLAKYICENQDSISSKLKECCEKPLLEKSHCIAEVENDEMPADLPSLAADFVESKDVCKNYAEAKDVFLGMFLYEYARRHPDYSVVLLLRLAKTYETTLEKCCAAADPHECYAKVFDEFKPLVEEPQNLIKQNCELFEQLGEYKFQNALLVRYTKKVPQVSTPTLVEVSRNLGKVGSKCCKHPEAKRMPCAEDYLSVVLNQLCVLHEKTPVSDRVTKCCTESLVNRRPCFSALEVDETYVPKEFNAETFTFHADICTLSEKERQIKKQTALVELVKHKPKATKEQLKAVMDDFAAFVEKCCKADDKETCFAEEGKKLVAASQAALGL

[5] = biological target: T2, human serum albumin (HSA); assay: in vitro; conditions: immobilized hsa column, pH 7.4
[6] = tested on: plasma protein; conditions: ref DrugBank [7], cited from earlier work
[7] = biological target: T1, bovine serum albumin (BSA); assay: RP TLC on plates impregnated with bovine serum albumin; assay type: binding; conditions: Table S4, RP plate impregnated with 2 mg/mL BSA; pH 7.4 mobile phase
From the text: as §1, §2, §3, §4, §5, §6

[8] = RP TLC on non-impregnated control plates; assay type: physicochemical; conditions: Table S4, non-impregnated RP plate; acetonitrile/acetate buffer pH 7.4/methanol 60:20:20
[9] = Table S1, coded 1/0; ref DrugBank [7]; cited from earlier work
[10] = Table S6, external group (n = 38), given as fraction
[11] = Table S5, retention factor, HSA column, pH 7.4, 25 degrees Celsius
[12] = Table S1, plasma protein binding given as fraction
[13] = human, immobilized hsa column, pH 7.4

| Compound | NP (Rf value from the NP plate impregnated with 2 mg/mL BSA solution) ([1]; Table S8, external group) | CNP (Rf value from the non-impregnated NP plate, control) ([2]; Table S8, external group) | kIAM [3] | log kIAM [3] | kHSA ([4]; Table S9, external group) | chromatographic logD [5] | PB [6, 10] | kHSA [4] | NP (Rf, BSA-impregnated NP plate) [1] | RP (Rf, BSA-impregnated RP plate) [7] | CNP (Rf, control NP plate) [2] | CRP (Rf, control RP plate) [8] | log k IAM [3] | k IAM [3] | k HSA [4, 11] | PB [6, 12] | CNS+/- [9] | log k HSA ([4]; Table S5, HSA, pH 7.4) | log k HSA [4, 13] | k HSA ([4]; pH 7.4) |
| --- | --- | --- | --- | --- | --- | --- | --- | --- | --- | --- | --- | --- | --- | --- | --- | --- | --- | --- | --- | --- |
| CCS(=O)(=O)CCn1c([N+](=O)[O-])cnc1C [tinidazole] | 0.88 | 0.89 | 2.00 | 0.30 | 0.12 | -0.92 | 0.12 |  |  |  |  |  |  |  |  |  |  |  |  |  |
| CC(C)C[C@H](CN)CC(=O)O [pregabalin] |  |  | 1.65 | 0.22 |  | -0.87 | 0.00 | 0.14 |  |  |  |  |  |  |  |  |  |  |  |  |
| CNCC[C@H](Oc1cccc2ccccc12)c1cccs1 [duloxetine] |  |  | 2.84 | 0.45 |  | 0.91 | 0.90 | 8.16 |  |  |  |  |  |  |  |  |  |  |  |  |
| CCN(CC)C(=O)Nc1ccc(OCC(O)CNC(C)(C)C)c(C(C)=O)c1 (stereo not shown) [celiprolol] |  |  |  |  |  | 0.05 |  |  | 0.46 | 0.79 | 0.45 | 0.75 | 0.77 | 5.87 | 1.12 | 0.275 |  |  |  |  |
| CN1CCN(C2=Nc3cc(Cl)ccc3Nc3ccccc32)CC1 [clozapine] |  |  |  |  |  | 0.84 |  |  | 0.46 |  | 0.45 |  | 1.71 | 50.94 | 6.84 |  |  |  |  |  |
| CC(C)c1nc(N(C)S(C)(=O)=O)nc(-c2ccc(F)cc2)c1/C=C/[C@@H](O)C[C@@H](O)CC(=O)O [rosuvastatin] |  |  |  |  |  | 0.29 |  |  | 0.89 | 0.88 | 0.9 | 0.92 | -0.02 | 0.96 | 1.96 |  | 0 |  |  |  |
| CCCc1nn(C)c2c(=O)[nH]c(-c3cc(S(=O)(=O)N4CCN(C)CC4)ccc3OCC)nc12 [sildenafil] |  |  |  |  |  | 0.21 |  |  | 0.67 | 0.76 | 0.69 | 0.77 | 1.15 | 14.26 | 1.62 | 0.96 | 1 |  |  |  |
| CCN(Cc1ccncc1)C(=O)C(CO)c1ccccc1 (stereo not shown) [tropicamid] |  |  |  |  |  |  |  |  | 0.86 | 0.83 | 0.85 | 0.83 | 0.03 | 1.06 | 0.15 | 0.45 | 1 | -0.82 |  |  |
| OCCOCCN1CCN(C2=Nc3ccccc3Sc3ccccc32)CC1 [quetiapine] |  |  |  |  |  |  |  |  | 0.68 | 0.69 | 0.68 | 0.73 | 1.23 | 17.02 | 2.48 | 0.83 | 1 |  | 0.39 |  |
| CCC[C@H](N[C@@H](C)C(=O)N1[C@H](C(=O)O)C[C@@H]2CCCC[C@@H]21)C(=O)OCC [perindopril] |  |  |  |  |  |  |  |  | 0.46 | 0.58 | 0.47 | 0.57 | -0.76 | 0.18 | 0.49 | 0.15 | 0 |  | -0.31 |  |
| CN(C)C(=O)C(CCN1CCC(O)(c2ccc(Cl)cc2)CC1)(c1ccccc1)c1ccccc1 [loperamide] |  |  |  |  |  | 0.65 |  |  | 0.67 | 0.77 | 0.68 | 0.75 |  |  |  |  |  |  |  | 4.47 |
| Cc1cncc(CN2CCC(=C3c4ccc(Cl)cc4CCc4cccnc43)CC2)c1 [rupatadine] |  |  |  |  |  | 1.09 |  |  | 0.43 | 0.52 | 0.42 | 0.55 | 0.97 | 9.29 | 12.38 | 0.985 |  |  |  |  |
| CC(C)NCC(O)COc1cccc2[nH]ccc12 (stereo not shown) [pindolol] |  |  |  |  |  | 0.22 |  |  | 0.52 |  | 0.53 |  | 0.78 | 6.09 | 1.65 | 0.4 |  |  |  |  |
